Experimental data taken from patent US20020137929A1, “1 - (3-heterocyclylphenyl) isothiourea, -isourea, -guanidine and -amidine herbicidal agents” (Intellectual Property Department, BASF Aktiengesellschaft, priority 1998, published 2002).

Experiments:
ORYSAT (Rice, Tebonnet) = experiment: Postemergence herbicidal evaluation; type: in vivo, Oryza sativa, (L.) Tebonnet; settings: postemergence
Procedure, shortened: (§1)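 Scores (0–9) reflect plant stand, vigor, malformation, size, chlorosis and general appearance relative to control, read 4 to 5 weeks after treatment and averaged where tests were repeated. Application: about 0.0156–0.500 kg/ha sprayed at 40 psi onto two-week seedlings.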

CYPIR (Rice Flatsedge) [1] = experiment: Postemergence weed control under flooded paddy conditions; type: in vivo, Cyperus iria; settings: postemergence weeds, 3-4 weeks after treatment
Procedure, shortened: (§2)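 With weeds 3 to 5 cm tall and rice at the 1.5 to 2.5 leaf stage, containers were flooded and water held 1.5 to 3 cm above soil. Compounds in 50/50 v/v aqueous/acetone went into the flood water at about 0.0313 to 0.500 kg/ha a.i. Effects were visually rated 0–9 against controls after three to four weeks in the greenhouse.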

GALAP (Galium) = experiment: Postemergence herbicidal evaluation; type: in vivo, Galium aparine; settings: postemergence
Procedure, shortened: as §1

CYPIR (Rice Flatsedge) [2] = experiment: Preemergence weed control under flooded paddy conditions; type: in vivo, Cyperus iria; settings: rated 3-4 weeks after treatment
Procedure, shortened: (§3)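 Silt loam, seeds in top 0.5 cm; flood held 1.5-3 cm; test cpd as acetone/water 50/50 into flood water, ~0.0313-0.500 kg/ha a.i.; greenhouse 3-4 wk; visual 0-9 score vs control.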

[3] = test system: TRZAWR (Wheat, Winter, cv Riband); experiment: Preemergence herbicidal evaluation; type: in vivo, Triticum aestivum; settings: rated 4-5 weeks after treatment
Procedure, shortened: (§4)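 Seeds were mixed with potting soil and planted on about one inch of soil, then sprayed with test compound in aqueous acetone at about 0.0156 to 0.500 kg per hectare. Plants grew under standard greenhouse care and were visually rated 0-9 against untreated controls 4-5 weeks post-treatment.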

ZEAMX (Corn, Field) = experiment: Preemergence herbicidal evaluation; type: in vivo, Zea mays; settings: rated 4-5 weeks after treatment
Procedure, shortened: as §4

ECHCG (Barnyardgrass) = experiment: Postemergence herbicidal evaluation; type: in vivo, Echinochloa crus-galli; settings: postemergence
Procedure, shortened: as §1

ABUTH (Velvetleaf) = experiment: Postemergence herbicidal evaluation; type: in vivo, Abutilon theophrasti; settings: postemergence
Procedure, shortened: as §1

[4] = test system: ECHORC (Watergrass (Calif.)); experiment: Preemergence weed control under flooded paddy conditions; type: in vivo, Echinochloa oryzoides; settings: rated 3-4 weeks after treatment
Procedure, shortened: as §3

[5] = test system: IPOHE (Morningglory, Ivyleaf); experiment: Preemergence herbicidal evaluation; type: in vivo, Ipomoea hederacea; settings: rated 4-5 weeks after treatment
Procedure, shortened: as §4

MOOVA (Monochoria) = experiment: Preemergence weed control under flooded paddy conditions; type: in vivo, Monochoria vaginalis; settings: rated 3-4 weeks after treatment
Procedure, shortened: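 Values are visual 0-9 scores against a control for a preemergence application into paddy flood water at about 0.0313 to 0.500 kg/ha. Greenhouse duration was three to four weeks.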

CYPSE (Flatsedge) = experiment: Postemergence weed control under flooded paddy conditions; type: in vivo, Cyperus serotinus; settings: postemergence weeds, 3-4 weeks after treatment
Procedure, shortened: as §2

[6] = test system: SAGPY (Arrowhead (Pygmaea)); experiment: as above; type: in vivo, Sagittaria pygmaea; settings: postemergence weeds, 3-4 weeks after treatment
Procedure, shortened: as §2

SETVI (Foxtail, Green) = experiment: Postemergence herbicidal evaluation; type: in vivo, Setaria viridis; settings: postemergence
Procedure, shortened: as §1

In the case of CCOC(=O)CN1C(=O)C(CC(=O)O)S/C1=N/c1cc(-n2c(=O)cc(C(F)(F)F)n(C)c2=O)c(F)cc1Cl (stereo not shown) [Compound 16], the ORYSAT herbicidal rating (ORYSAT (Rice, Tebonnet); rate 0.0157 kg/ha) is reported as 3.0, the ORYSAT herbicidal rating (ORYSAT (Rice, Tebonnet); rate 0.0313 kg/ha) is reported as 4.2 and the ORYSAT herbicidal rating (ORYSAT (Rice, Tebonnet); rate 0.0625 kg/ha) is reported as 5.7. The ORYSAT herbicidal rating (ORYSAT (Rice, Tebonnet); rate 0.1250 kg/ha) was 7.3, the ORYSAT herbicidal rating (ORYSAT (Rice, Tebonnet); rate 0.2500 kg/ha) was 7.5 and the “Herbicidal rating CYPIR” value (CYPIR (Rice Flatsedge) [1]; rate 0.0313 kg/ha) was 0.0. For the same compound, the “Herbicidal rating CYPIR” value (CYPIR (Rice Flatsedge) [1]; rate 0.0625 kg/ha) was 0.0, the “Herbicidal rating CYPIR” value (CYPIR (Rice Flatsedge) [1]; rate 0.1250 kg/ha) was 4.0 and the “Herbicidal rating CYPIR” value (CYPIR (Rice Flatsedge) [1]; rate 0.2500 kg/ha) was 9.0. It also gave a GALAP herbicidal rating (GALAP (Galium); rate 0.0157 kg/ha) of 5.0, a GALAP herbicidal rating (GALAP (Galium); rate 0.0313 kg/ha) of 5.3 and a GALAP herbicidal rating (GALAP (Galium); rate 0.0625 kg/ha) of 6.8. For the same compound, the GALAP herbicidal rating (GALAP (Galium); rate 0.1250 kg/ha) was 8.4, the GALAP herbicidal rating (GALAP (Galium); rate 0.2500 kg/ha) was 9.0 and the “Herbicidal rating CYPIR” value (CYPIR (Rice Flatsedge) [2]; 0.0313 kg/ha) was 0.0. The “Herbicidal rating CYPIR” value (CYPIR (Rice Flatsedge) [2]; 0.0625 kg/ha) was 0.0, the “Herbicidal rating CYPIR” value (CYPIR (Rice Flatsedge) [2]; 0.1250 kg/ha) was 4.0 and the “Herbicidal rating CYPIR” value (CYPIR (Rice Flatsedge) [2]; 0.2500 kg/ha) was 9.0. The “TRZAWR preemergence herbicidal rating” value ([3]; rate 0.0156 kg/ha) was 0.1, the “TRZAWR preemergence herbicidal rating” value ([3]; rate 0.0313 kg/ha) was 0.5 and the “TRZAWR preemergence herbicidal rating” value ([3]; rate 0.0625 kg/ha) was 0.5. For the same compound, the “TRZAWR preemergence herbicidal rating” value ([3]; rate 0.1250 kg/ha) was 0.8, the “TRZAWR preemergence herbicidal rating” value ([3]; rate 0.2500 kg/ha) was 2.6 and the “TRZAWR preemergence herbicidal rating” value ([3]; rate 0.5000 kg/ha) was 5.8. The “ZEAMX preemergence herbicidal rating” value (ZEAMX (Corn, Field); rate 0.0156 kg/ha) was 0.1, the “ZEAMX preemergence herbicidal rating” value (ZEAMX (Corn, Field); rate 0.0313 kg/ha) was 0.6 and the “ZEAMX preemergence herbicidal rating” value (ZEAMX (Corn, Field); rate 0.0625 kg/ha) was 1.4. The “ZEAMX preemergence herbicidal rating” value (ZEAMX (Corn, Field); rate 0.1250 kg/ha) was 1.8, the “ZEAMX preemergence herbicidal rating” value (ZEAMX (Corn, Field); rate 0.2500 kg/ha) was 3.7 and the “ZEAMX preemergence herbicidal rating” value (ZEAMX (Corn, Field); rate 0.5000 kg/ha) was 6.0. It also gave an ECHCG herbicidal rating (ECHCG (Barnyardgrass); rate 0.0157 kg/ha) of 3.0, an ECHCG herbicidal rating (ECHCG (Barnyardgrass); rate 0.0313 kg/ha) of 8.8 and an ECHCG herbicidal rating (ECHCG (Barnyardgrass); rate 0.0625 kg/ha) of 9.0. The ECHCG herbicidal rating (ECHCG (Barnyardgrass); rate 0.1250 kg/ha) was 9.0, the ECHCG herbicidal rating (ECHCG (Barnyardgrass); rate 0.2500 kg/ha) was 9.0 and the ABUTH herbicidal rating (ABUTH (Velvetleaf); rate 0.0157 kg/ha) was 9.0. It also gave an ABUTH herbicidal rating (ABUTH (Velvetleaf); rate 0.0313 kg/ha) of 9.0, an ABUTH herbicidal rating (ABUTH (Velvetleaf); rate 0.0625 kg/ha) of 9.0 and an ABUTH herbicidal rating (ABUTH (Velvetleaf); rate 0.1250 kg/ha) of 9.0. For the same compound, the ABUTH herbicidal rating (ABUTH (Velvetleaf); rate 0.2500 kg/ha) was 9.0, the “Herbicidal rating ECHORC” value ([4]; 0.0313 kg/ha) was 0.0 and the “Herbicidal rating ECHORC” value ([4]; 0.0625 kg/ha) was 0.0. The “Herbicidal rating ECHORC” value ([4]; 0.1250 kg/ha) was 0.0, the “Herbicidal rating ECHORC” value ([4]; 0.2500 kg/ha) was 0.0 and the “IPOHE preemergence herbicidal rating” value ([5]; rate 0.0156 kg/ha) was 0.9. The “IPOHE preemergence herbicidal rating” value ([5]; rate 0.0313 kg/ha) was 3.5, the “IPOHE preemergence herbicidal rating” value ([5]; rate 0.0625 kg/ha) was 7.6 and the “IPOHE preemergence herbicidal rating” value ([5]; rate 0.1250 kg/ha) was 8.7. For the same compound, the “IPOHE preemergence herbicidal rating” value ([5]; rate 0.2500 kg/ha) was 9.0, the “IPOHE preemergence herbicidal rating” value ([5]; rate 0.5000 kg/ha) was 9.0 and the “Herbicidal rating MOOVA” value (MOOVA (Monochoria); 0.0313 kg/ha) was 9.0. The “Herbicidal rating MOOVA” value (MOOVA (Monochoria); 0.0625 kg/ha) was 9.0, the “Herbicidal rating MOOVA” value (MOOVA (Monochoria); 0.1250 kg/ha) was 9.0 and the “Herbicidal rating MOOVA” value (MOOVA (Monochoria); 0.2500 kg/ha) was 3.0. For the same compound, the “Herbicidal rating CYPSE” value (CYPSE (Flatsedge); rate 0.0313 kg/ha) was 0.0, the “Herbicidal rating CYPSE” value (CYPSE (Flatsedge); rate 0.0625 kg/ha) was 0.0 and the “Herbicidal rating CYPSE” value (CYPSE (Flatsedge); rate 0.1250 kg/ha) was 0.0. For the same compound, the “Herbicidal rating CYPSE” value (CYPSE (Flatsedge); rate 0.2500 kg/ha) was 0.0, the “Herbicidal rating SAGPY” value ([6]; rate 0.0313 kg/ha) was 0.0 and the “Herbicidal rating SAGPY” value ([6]; rate 0.0625 kg/ha) was 0.0. For the same compound, the “Herbicidal rating SAGPY” value ([6]; rate 0.1250 kg/ha) was 0.0, the “Herbicidal rating SAGPY” value ([6]; rate 0.2500 kg/ha) was 0.0 and the SETVI herbicidal rating (SETVI (Foxtail, Green); rate 0.0157 kg/ha) was 9.0. It also gave an SETVI herbicidal rating (SETVI (Foxtail, Green); rate 0.0313 kg/ha) of 7.8, an SETVI herbicidal rating (SETVI (Foxtail, Green); rate 0.0625 kg/ha) of 9.0 and an SETVI herbicidal rating (SETVI (Foxtail, Green); rate 0.1250 kg/ha) of 9.0. The SETVI herbicidal rating (SETVI (Foxtail, Green); rate 0.2500 kg/ha) was 9.0.
